In patent publication US20220354818A1, “METHODS FOR TREATING BRAIN INJURY OR COGNITIVE DYSFUNCTION BY PHARMACOLOGICAL ENHANCMENT OF M-TYPE POTASSIUM ION CURRENTS IN NEURONS” (Advanced Neuroresearch Therapeutics LLC, priority 2019, published 2022):
“Also recorded” adds a separate entry of the source.

Assays:
[1] = test system: neurons of the dentate gyrus of the hippocampus; test: Ex vivo brain-slice calcium imaging (GCaMP6f) with kainic acid stimulation after TBI; assay type: in vivo, mouse; conditions: RL648_81 30 minutes after blunt TBI
Protocol: In another embodiment of the present invention, ex vivo imaging of intracellular calcium levels in neurons, which are a reporter of activity or hyper-activity of neurons, were assayed in the brain slices using transgenic mice expressing the genetically encoded indicator of calcium levels, GCaMP6f expressed only in neurons.
Turning now to FIG. 8, the chemo-convulsant, kainic acid (KA), was used to stimulate neurons from brain slices of the dentate gyms (DG) of the hippocampus (the part of the brain where most new memories are thought to form) from sham mice, mice subjected to a TBI but not drug or TBI followed by RL-648_81.

[2] = test system: cortical neurons; test: In vivo two-photon calcium imaging of cortical neurons through a cranial window after TBI; conditions: living mouse brain
Excerpt: Referring now to FIG. 9, another embodiment of the present invention concerns in vivo imaging of intracellular calcium levels in neurons from living brain in vivo, as a reporter of activity/hyperactivity. The genetically-encoded calcium reporter, GCaMP6f, was used in transgenic mice in which the reporter is expressed in critical subsets of brain neurons, allowing in vivo recordings of neurons of living brain, as a reporter of activity/hyperactivity in cortex induced by TBI, the first event in the hypothesis of the present invention, which causes TBI-induced brain damage (See, e.g., FIG. 1). For these experiments two-photon confocal live imaging of mouse cortical neurons through a cortical window was used. Live video records of the activity of cortical neurons in mice before and after TBI were made.

[3] = test system: mice subjected to one blunt TBI (CCCI); test: Dosage optimization: spontaneous myoclonic seizures after one blunt TBI (CCCI); assay type: in vivo, mouse; conditions: RL648_81 0.03, 0.1 and 0.3 mg/kg i.p. once 30 minutes post-TBI
Protocol: An additional KCNQ2/3-specific compound, RL648_81 was also administered in the same manner (0.03 mg/kg, 0.1 mg/kg, and 0.3 mg/kg). […] To monitor the occurrence of spontaneous myoclonic seizures after, the mice were video/EEG monitored from the second to the fourth day after the TBI (72 hours total).

[4] = test system: mice subjected to one blunt TBI, pentylenetetrazol (PTZ); test: PTZ-induced seizure susceptibility after one blunt TBI (CCCI); assay type: in vivo, mouse; conditions: RL648_81 at 0.1 mg/kg; PTZ 35 mg/kg s.c. fifth day post-TBI
Excerpt: Stimulation with PTZ induced the occurrence of clonic and tonic-clonic seizures in TBI-subjected mice.

[5] = test system: sympathetic neuron; test: Action potential firing in a sympathetic neuron, current-clamp
Excerpt: Various currents are applied in “current-clamp” mode 44 ranging from 50 pA to −100 pA, and the resulting AP firing recorded.

Structure (SMILES): CCOC(=O)Nc1ccc(NCc2ccc(C(F)(F)F)cc2)c(F)c1N [RL648_81]
- TBI-induced increase in hyper-activity in response to kainic acid stimulation (hippocampal slices, ex vivo) [1]: reduces the increased seizure susceptibility in brain slices; also recorded: completely abolished
- TBI-induced hyper-excitability in cortex imaged in vivo [2]: prevents TBI-induced hyper-excitability in cortex
- occurrence of TBI-induced myoclonic seizures [3]: measurably reduced the occurrence of TBI-induced myoclonic seizures
- occurrence of PTZ-induced seizures [4]: completely blocked the occurrence of PTZ-induced seizures

Structure (SMILES): O=C1N(c2ccccc2)c2ccccc2C1(Cc1ccncc1)Cc1ccncc1 [leopardine]
- action potential firing in response to stimuli [5]: out-of-control AP firing
